From US10561670B2, “Compositions comprising acidic extracts of mastic gum” (REGENERA PHARMA LTD., priority 2010, dated 2020)

Tested on: rat MCAO model
Assay: Rat MCAO stroke model, adhesive removal test
Type: in vivo
Conditions: for Time to remove the adhesive tape from the contralateral paw: day 27, subcutaneous 25 microliters twice a week, each compound 0.65% (w/w) in cottonseed oil, versus vehicle and base line (FIG. 14A)
Source text: For the experiments described herein, the animals are anesthetized using ketamine/xylazine solution. The animal's neck is then shaved and a midline incision is made in the skin of the neck, and the tissue underneath is bluntly dissected. The right common carotid artery (CCA) and its junction with the external carotid artery (ECA) and internal carotid artery (ICA) are exposed by blunt dissection. The CCA is then transiently closed by positioning around it a 3-0 silk suture material. The ECA is permanently occluded with the same type of suture material. A third closure, transient, is also done in the ICA with 3-0 silk suture material.
A small hole is cut in the ECA and the nylon thread is inserted into the ICA while avoiding entrance into the pterygopalatine artery. The thread is inserted 21-25 mm until a slight resistance is felt. Then a 3-0 silk suture knot secures the thread.
Following surgery, the rats are returned to their cages and remain under a heating lamp until they awake.
Two parameters are monitored and recorded during the ischemic surgery procedure: animal's core temperature and blood glucose level (BGL).
Core temperature is monitored using rectal probe (YSI USA model 400) connected to a measuring unit (Cole Parmer model 8402-00) during the entire surgery period. Ischemic insult is started when rectal temperature is 37-38° C.
The rats of the different groups were injected twice a week subcutaneous with 25 microliters of designated test item. First injection was given three hours after stroke induction.
• Vehicle: cottonseed oil • IMDA: 0.65% (w/w) in cottonseed oil • MDA: 0.65% (w/w) in cottonseed oil • IMDA and MDA: each 0.65% (w/w) in cottonseed oil • IMDA, MDA and OA: each 0.65% (w/w) in cottonseed oil MDA alone; IMDA alone; a combination of MDA+IMDA; and a combination of OA+MDA+IMDA, were tested using a rat MCAO model, for their therapeutic capacity. Stroke induced rats were treated with each of the tested compounds and the improvement of their sensorimotor abilities were tested using the adhesive removal test. […] The time to remove the tape is recorded. […]

| SMILES | Time to remove the adhesive tape from the contralateral paw | Baseline fold change, removal of adhesive tape from the contralateral paw (day 27 relative to base line score (FIG. 14B)) [fold] |
| --- | --- | --- |
| C/C(=C\CC[C@H](C)[C@@H]1CC[C@]2(C)C3=CC[C@H]4C(C)(C)C(=O)CC[C@]4(C)[C@H]3CC[C@@]12C)C(=O)O [MDA, Masticadienoic acid] | only slightly better than the vehicle control |  |
| CC(=CCCC(C)C1CCC2(C)C3=C(CCC12C)C1(C)CCC(=O)C(C)(C)C1CC3)C(=O)O (stereo not drawn) [IMDA, Isomasticadienoic acid] | able to improve the score of treated rats | 10 |
